{"source": "paper PMC8241654", "about": "(Cell, 2021)", "system": "HLA class I", "assay_type": "cell-based, Human"}
{"sequence": "MIAQYTSAL [B7 COVID 16]", "values": [{"measurement": "HLA class I stabilization across alleles (in words)", "value": "can stabilize a number of HLA class I alleles"}]}
